Test results taken from patent publication US9738634B2, “Heterocyclic amide compound and herbicide” (SYNGENTA PARTICIPATIONS AG, priority 2013, dated 2017).

Experiments:
Assay type in all cases: in vivo
Conditions in all cases: treatment dosage 320 g/ha
crabgrass [1] = test: Test Example 4: weedkilling efficacy by foliar treatment; D: crabgrass
Method in brief: (§1)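 Seeds are spot-sown into sterilized diluvial soil and covered with about 1.5 cm of soil. After 14 days' greenhouse growth at 25 to 30° C, plants are sprayed on stems and leaves with diluted emulsion at the stated g/ha rate, then scored at 3 weeks.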

common wind-grass [2] = test: Test Example 4: weedkilling efficacy by foliar treatment; J: common wind-grass
Method in brief: as §1

black-grass [3] = test: Test Example 3: weedkilling efficacy through soil treatment; H: black-grass
Method in brief: (§2)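 Crop and weed responses were judged three weeks after a uniform surface spray of the water-diluted emulsion at the given g/ha rate. Seeds sat beneath about 1.5 cm of sterilized diluvial soil, and boxes stood in a greenhouse at 25 to 30° C.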

barnyard grass [4] = test: Test Example 2: weedkilling efficacy, growth period weed treatment in the submerged state; A: barnyard grass
Method in brief: (§3)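 First, alluvial soil in pots is flooded to 4 cm and mixed seed is sown. Next, plants grow in a greenhouse at 25 to 30° C until the 1-2 leaf stage. Then diluted emulsion is applied onto the water surface at the given g/ha rate, and injury is assessed after 3 weeks.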

rapeseed [5] = test: Test Example 3: soil treatment, effect on crop; g: rapeseed
Method in brief: as §2

beet [6] = test: Test Example 3: soil treatment, effect on crop; f: beet
Method in brief: as §2

rapeseed [7] = test: Test Example 4: foliar treatment, effect on crop; g: rapeseed
Method in brief: as §1

transplanted rice = test: Test Example 1: preemergent weed treatment in the submerged state, effect on crop; a: transplanted rice
Method in brief: (§4)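 Emulsion diluted with water to the specified per-hectare dosage is applied onto flood water (4 cm) over alluvial soil on the sowing day, with barnyard grass, bulrush and pondweed seeded and rice (2.5-leaf) transplanted; plants grow at 25–30 °C and are rated at 3 weeks.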

soybean [8] = test: Test Example 3: soil treatment, effect on crop; d: soybean
Method in brief: as §2

Italian ryegrass [9] = test: Test Example 3: weedkilling efficacy through soil treatment; I: Italian ryegrass
Method in brief: as §2

barnyard grass [10] = test: Test Example 4: weedkilling efficacy by foliar treatment; F: barnyard grass
Method in brief: as §1

catchweed = test: Test Example 4: weedkilling efficacy by foliar treatment; O: catchweed
Method in brief: as §1

wheat [11] = test: Test Example 3: soil treatment, effect on crop; e: wheat
Method in brief: as §2

oval-leafed pondweed [12] = test: Test Example 1: weedkilling efficacy, preemergent weed treatment in the submerged state; C: oval-leafed pondweed
Method in brief: as §4

beet [13] = test: Test Example 4: foliar treatment, effect on crop; f: beet
Method in brief: as §1

Indian mallow [14] = test: Test Example 3: weedkilling efficacy through soil treatment; K: Indian mallow
Method in brief: as §2

green foxtail [15] = test: Test Example 3: weedkilling efficacy through soil treatment; E: green foxtail
Method in brief: as §2

wild oat [16] = test: Test Example 3: weedkilling efficacy through soil treatment; G: wild oat
Method in brief: as §2

common wind-grass [17] = test: Test Example 3: weedkilling efficacy through soil treatment; J: common wind-grass
Method in brief: as §2

corn [18] = test: Test Example 4: foliar treatment, effect on crop; c: corn
Method in brief: as §1

soybean [19] = test: Test Example 4: foliar treatment, effect on crop; d: soybean
Method in brief: as §1

bulrush [20] = test: Test Example 2: weedkilling efficacy, growth period weed treatment in the submerged state; B: bulrush
Method in brief: as §3

wheat [21] = test: Test Example 4: foliar treatment, effect on crop; e: wheat
Method in brief: as §1

bulrush [22] = test: Test Example 1: weedkilling efficacy, preemergent weed treatment in the submerged state; B: bulrush
Method in brief: as §4

crabgrass [23] = test: Test Example 3: weedkilling efficacy through soil treatment; D: crabgrass
Method in brief: as §2

chickweed [24] = test: Test Example 4: weedkilling efficacy by foliar treatment; N: chickweed
Method in brief: as §1

Italian ryegrass [25] = test: Test Example 4: weedkilling efficacy by foliar treatment; I: Italian ryegrass
Method in brief: as §1

birds-eye speedwell = test: Test Example 4: weedkilling efficacy by foliar treatment; p: birds-eye speedwell
Method in brief: as §1

chickweed [26] = test: Test Example 3: weedkilling efficacy through soil treatment; N: chickweed
Method in brief: as §2

redroot pigweed [27] = test: Test Example 3: weedkilling efficacy through soil treatment; L: redroot pigweed
Method in brief: as §2

directly sown rice [28] = test: Test Example 4: foliar treatment, effect on crop; b: directly sown rice
Method in brief: as §1

barnyard grass [29] = test: Test Example 3: weedkilling efficacy through soil treatment; F: barnyard grass
Method in brief: as §2

redroot pigweed [30] = test: Test Example 4: weedkilling efficacy by foliar treatment; L: redroot pigweed
Method in brief: as §1

oval-leafed pondweed [31] = test: Test Example 2: weedkilling efficacy, growth period weed treatment in the submerged state; C: oval-leafed pondweed
Method in brief: as §3

directly sown rice [32] = test: Test Example 3: soil treatment, effect on crop; b: directly sown rice
Method in brief: as §2

wild oat [33] = test: Test Example 4: weedkilling efficacy by foliar treatment; G: wild oat
Method in brief: as §1

corn [34] = test: Test Example 3: soil treatment, effect on crop; c: corn
Method in brief: as §2

barnyard grass [35] = test: Test Example 1: weedkilling efficacy, preemergent weed treatment in the submerged state; A: barnyard grass
Method in brief: as §4

green foxtail [36] = test: Test Example 4: weedkilling efficacy by foliar treatment; E: green foxtail
Method in brief: as §1

fig-leafed goosefoot [37] = test: Test Example 4: weedkilling efficacy by foliar treatment; M: fig-leafed goosefoot
Method in brief: as §1

black-grass [38] = test: Test Example 4: weedkilling efficacy by foliar treatment; H: black-grass
Method in brief: as §1

Indian mallow [39] = test: Test Example 4: weedkilling efficacy by foliar treatment; K: Indian mallow
Method in brief: as §1

fig-leafed goosefoot [40] = test: Test Example 3: weedkilling efficacy through soil treatment; M: fig-leafed goosefoot
Method in brief: as §2

Compound: CC1=C(c2ccccc2)C(=O)N(C(C)(C)C(=O)Nc2cc(F)nc(F)c2)CO1 [B-4-04]
- D (crabgrass) weedkilling efficacy grade (crabgrass [1]): 4 (weed kill ratio 70% or more, less than 90%)
- J (common wind-grass) weedkilling efficacy grade (common wind-grass [2]): 4 (weed kill ratio 70% or more, less than 90%)
- H (black-grass) weedkilling efficacy grade (black-grass [3]): 5 (weed kill ratio 90% or more, (practically complete withering))
- A (barnyard grass) weedkilling efficacy grade (barnyard grass [4]): 5 (weed kill ratio 90% or more, (practically complete withering))
- g (rapeseed) effect on crop grade (rapeseed [5]): 4 (weed kill ratio 70% or more, less than 90%)
- f (beet) effect on crop grade (beet [6]): 2 (weed kill ratio 20% or more, less than 40%)
- g (rapeseed) effect on crop grade (rapeseed [7]): 3 (weed kill ratio 40% or more, less than 70%)
- a (transplanted rice) effect on crop grade (transplanted rice): 0 (weed kill ratio 5% or less (practically no effect))
- d (soybean) effect on crop grade (soybean [8]): 0 (weed kill ratio 5% or less (practically no effect))
- I (Italian ryegrass) weedkilling efficacy grade (Italian ryegrass [9]): 5 (weed kill ratio 90% or more, (practically complete withering))
- F (barnyard grass) weedkilling efficacy grade (barnyard grass [10]): 4 (weed kill ratio 70% or more, less than 90%)
- O (catchweed) weedkilling efficacy grade (catchweed): 4 (weed kill ratio 70% or more, less than 90%)
- e (wheat) effect on crop grade (wheat [11]): 0 (weed kill ratio 5% or less (practically no effect))
- C (oval-leafed pondweed) weedkilling efficacy grade (oval-leafed pondweed [12]): 5 (weed kill ratio 90% or more, (practically complete withering))
- f (beet) effect on crop grade (beet [13]): 4 (weed kill ratio 70% or more, less than 90%)
- K (Indian mallow) weedkilling efficacy grade (Indian mallow [14]): 0 (weed kill ratio 5% or less (practically no effect))
- E (green foxtail) weedkilling efficacy grade (green foxtail [15]): 5 (weed kill ratio 90% or more, (practically complete withering))
- G (wild oat) weedkilling efficacy grade (wild oat [16]): 0 (weed kill ratio 5% or less (practically no effect))
- J (common wind-grass) weedkilling efficacy grade (common wind-grass [17]): 5 (weed kill ratio 90% or more, (practically complete withering))
- c (corn) effect on crop grade (corn [18]): 1 (weed kill ratio 5% or more, less than 20%)
- d (soybean) effect on crop grade (soybean [19]): 1 (weed kill ratio 5% or more, less than 20%)
- B (bulrush) weedkilling efficacy grade (bulrush [20]): 5 (weed kill ratio 90% or more, (practically complete withering))
- e (wheat) effect on crop grade (wheat [21]): 4 (weed kill ratio 70% or more, less than 90%)
- B (bulrush) weedkilling efficacy grade (bulrush [22]): 5 (weed kill ratio 90% or more, (practically complete withering))
- D (crabgrass) weedkilling efficacy grade (crabgrass [23]): 5 (weed kill ratio 90% or more, (practically complete withering))
- N (chickweed) weedkilling efficacy grade (chickweed [24]): 3 (weed kill ratio 40% or more, less than 70%)
- I (Italian ryegrass) weedkilling efficacy grade (Italian ryegrass [25]): 4 (weed kill ratio 70% or more, less than 90%)
- P (birds-eye speedwell) weedkilling efficacy grade (birds-eye speedwell): 4 (weed kill ratio 70% or more, less than 90%)
- N (chickweed) weedkilling efficacy grade (chickweed [26]): 4 (weed kill ratio 70% or more, less than 90%)
- L (redroot pigweed) weedkilling efficacy grade (redroot pigweed [27]): 3 (weed kill ratio 40% or more, less than 70%)
- b (directly sown rice) effect on crop grade (directly sown rice [28]): 4 (weed kill ratio 70% or more, less than 90%)
- F (barnyard grass) weedkilling efficacy grade (barnyard grass [29]): 5 (weed kill ratio 90% or more, (practically complete withering))
- L (redroot pigweed) weedkilling efficacy grade (redroot pigweed [30]): 3 (weed kill ratio 40% or more, less than 70%)
- C (oval-leafed pondweed) weedkilling efficacy grade (oval-leafed pondweed [31]): 5 (weed kill ratio 90% or more, (practically complete withering))
- b (directly sown rice) effect on crop grade (directly sown rice [32]): 3 (weed kill ratio 40% or more, less than 70%)
- G (wild oat) weedkilling efficacy grade (wild oat [33]): 2 (weed kill ratio 20% or more, less than 40%)
- c (corn) effect on crop grade (corn [34]): 0 (weed kill ratio 5% or less (practically no effect))
- A (barnyard grass) weedkilling efficacy grade (barnyard grass [35]): 5 (weed kill ratio 90% or more, (practically complete withering))
- E (green foxtail) weedkilling efficacy grade (green foxtail [36]): 4 (weed kill ratio 70% or more, less than 90%)
- M (fig-leafed goosefoot) weedkilling efficacy grade (fig-leafed goosefoot [37]): 4 (weed kill ratio 70% or more, less than 90%)
- H (black-grass) weedkilling efficacy grade (black-grass [38]): 4 (weed kill ratio 70% or more, less than 90%)
- K (Indian mallow) weedkilling efficacy grade (Indian mallow [39]): 5 (weed kill ratio 90% or more, (practically complete withering))
- M (fig-leafed goosefoot) weedkilling efficacy grade (fig-leafed goosefoot [40]): 3 (weed kill ratio 40% or more, less than 70%)
